Measured values reported in patent US20130202629A1, “USES OF PHOSPHOLIPID CONJUGATES OF SYNTHETIC TLR7 AGONISTS” (The Regents of the University of California, priority 2010, published 2013).
Where “and” joins values, the source holds several entries; their conditions need not be identical. Identical values can stand only once. Entries after “also recorded” stand apart in the source; their conditions may differ.

What was measured:
C57BL/6 mice = experiment: In vivo kinetics of serum pro-inflammatory cytokine induction after intravenous injection; set-up: species or system mouse; conditions: i.v., 200 nmol per animal
Method: The mice were intravenously injected with TLR7 agonists and their conjugates (40 nmol compound (4a) or 200 nmol SM and compounds (6), (8), or (9) per mouse). Blood samples were collected 2, 4, 6, 24 or 48 hours after injections. Sera were separated and kept at −20° C. until use. The levels of cytokines (e.g. IL-6 and TNF-α in the sera were measured by Luminex bead microassay, and the results presented in FIGS. 4A-B. Data are mean±SEM of five mice and are representative of two independent experiments. The minimum detection levels of IL-6 and TNF-α are 5 pg/mL and 10 pg/mL, respectively.
Cytokine induction by compounds (4a), (6), and (9), were sustained for up to 6 hours.

TLR7 [1] = experiment: IL-12 and IL-6 induction in BMDM from wild type and TLR7 deficient mice; format: cell-based, mouse; conditions: BMDM from TLR7 deficient (TLR7-KO) mice
TLR7 [2] = biological target: T1, TLR7 (Mus musculus, UniProt P58681); experiment: In vitro cytokine induction (TNF-alpha, IL-6, IL-12; ELISA) in murine macrophages: RAW264.7 cells and BMDM; format: cell-based; conditions: RAW264.7 and BMDM, 18 hours; b281 also in vivo
T1 construct: BMDM were prepared from C57BL/6 and TLR7 deficient mice; endogenous in cells; host or cells: RAW264.7 (ATCC); bone marrow derived macrophages from C57BL/6 mice
T1 sequence (P58681 27-1050): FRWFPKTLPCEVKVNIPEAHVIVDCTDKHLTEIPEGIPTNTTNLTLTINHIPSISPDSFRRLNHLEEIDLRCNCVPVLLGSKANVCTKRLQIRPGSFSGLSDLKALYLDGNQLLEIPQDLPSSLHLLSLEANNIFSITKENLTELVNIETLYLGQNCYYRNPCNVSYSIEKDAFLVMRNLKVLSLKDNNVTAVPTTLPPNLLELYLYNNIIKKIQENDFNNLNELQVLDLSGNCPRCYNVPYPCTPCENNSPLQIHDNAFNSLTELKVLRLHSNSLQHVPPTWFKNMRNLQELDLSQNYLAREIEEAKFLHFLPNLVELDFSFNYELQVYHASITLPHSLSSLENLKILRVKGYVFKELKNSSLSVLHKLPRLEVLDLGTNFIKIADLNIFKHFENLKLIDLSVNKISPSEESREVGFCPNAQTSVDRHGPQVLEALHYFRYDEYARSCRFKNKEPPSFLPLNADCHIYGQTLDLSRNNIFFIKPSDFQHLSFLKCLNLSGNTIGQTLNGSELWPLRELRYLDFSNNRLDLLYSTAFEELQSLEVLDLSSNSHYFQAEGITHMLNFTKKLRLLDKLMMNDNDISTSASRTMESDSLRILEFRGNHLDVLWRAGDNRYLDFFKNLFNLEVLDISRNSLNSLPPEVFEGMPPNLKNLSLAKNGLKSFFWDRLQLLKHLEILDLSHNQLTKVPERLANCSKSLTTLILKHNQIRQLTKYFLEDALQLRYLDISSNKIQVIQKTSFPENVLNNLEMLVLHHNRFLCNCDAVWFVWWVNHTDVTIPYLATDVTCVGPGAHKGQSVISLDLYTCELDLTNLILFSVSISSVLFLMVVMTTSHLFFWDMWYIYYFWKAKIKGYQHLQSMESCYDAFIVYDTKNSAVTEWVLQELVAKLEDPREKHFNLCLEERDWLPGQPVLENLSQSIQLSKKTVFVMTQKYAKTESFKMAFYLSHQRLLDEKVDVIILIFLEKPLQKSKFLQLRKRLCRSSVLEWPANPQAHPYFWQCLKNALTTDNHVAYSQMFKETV
Method: In vitro measurements of cytokine induction were performed using the mouse leukemic monocyte macrophage cell line, RAW264.7. […] BMDM were prepared from C57BL/6 and TLR7 deficient mice as described in Wu, C. C et al., “Immunotherapeutic activity of a conjugate of a Toll-like receptor 7 ligand”, Proc. Natl. Acad. Sci. USA, 104:3990 (2007).
In general, RAW264.7 cells or BMDM were incubated with various concentrations of conjugates for 18 hours at 37° C., 5% CO2 and culture supernatants were collected. The levels of cytokines (IL-6, IL-12 or TNF-α in the supernatants were determined by ELISA (BD Biosciences Pharmingen, La Jolla, Calif.) (Cho, H. J et al., “Immunostimulatory DNA-based vaccines induce cytotoxic lymphocyte activity by a T-helper cell-independent mechanism” [see comments], Nat. Biotechnol., 18:509 (2000)), and the results presented in FIGS. 2A-D. Data are mean±SEM of triplicates and are representative of three independent experiments. Minimum detection levels of these cytokines were 15 pg/mL.
TNFα levels were measured (see FIG. 2A) by incubating approximately 1×10^6/mL RAW 264.7 cells with the various conjugates or controls, as described above. IL-6 and IL-12 levels were measured (see FIGS. 2B-D) by incubating 0.5×10^6/mL BMDM with the various conjugates or controls, as described above. […]

TLR7 [3] = biological target: T2, TLR7 (Homo sapiens, UniProt Q9NYK1); experiment: Cytokine induction (IL-6, IFNalpha1; Luminex) in human PBMC; format: cell-based; conditions: 18 hours, IL-6 (FIG. 3A)
T2 sequence (Q9NYK1 27-1049): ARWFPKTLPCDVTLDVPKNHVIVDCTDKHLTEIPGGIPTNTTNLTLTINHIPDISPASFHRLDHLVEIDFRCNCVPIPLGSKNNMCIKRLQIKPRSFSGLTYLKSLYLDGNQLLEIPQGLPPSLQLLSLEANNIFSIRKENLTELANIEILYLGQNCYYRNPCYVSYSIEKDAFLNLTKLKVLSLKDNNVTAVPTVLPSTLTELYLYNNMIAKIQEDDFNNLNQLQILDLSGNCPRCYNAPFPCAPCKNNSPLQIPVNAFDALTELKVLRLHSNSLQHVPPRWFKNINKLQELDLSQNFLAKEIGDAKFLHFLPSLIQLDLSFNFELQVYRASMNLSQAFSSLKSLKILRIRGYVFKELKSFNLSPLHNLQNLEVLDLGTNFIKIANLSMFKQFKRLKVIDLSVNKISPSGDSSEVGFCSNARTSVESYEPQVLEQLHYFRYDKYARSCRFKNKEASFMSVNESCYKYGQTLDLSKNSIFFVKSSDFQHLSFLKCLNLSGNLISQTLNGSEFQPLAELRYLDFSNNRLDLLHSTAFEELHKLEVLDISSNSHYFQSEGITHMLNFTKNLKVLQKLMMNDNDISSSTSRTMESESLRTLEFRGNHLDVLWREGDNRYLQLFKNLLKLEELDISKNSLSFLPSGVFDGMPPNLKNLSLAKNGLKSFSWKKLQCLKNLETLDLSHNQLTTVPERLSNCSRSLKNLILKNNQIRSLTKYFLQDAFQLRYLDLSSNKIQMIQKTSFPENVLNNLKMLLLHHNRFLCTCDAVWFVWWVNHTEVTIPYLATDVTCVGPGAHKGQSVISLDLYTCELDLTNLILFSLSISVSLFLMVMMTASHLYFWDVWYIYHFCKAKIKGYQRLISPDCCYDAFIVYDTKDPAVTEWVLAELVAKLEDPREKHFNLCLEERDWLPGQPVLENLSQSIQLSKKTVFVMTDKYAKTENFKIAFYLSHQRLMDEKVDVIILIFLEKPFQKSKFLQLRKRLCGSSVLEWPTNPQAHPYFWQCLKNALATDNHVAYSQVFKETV

Solubility = format: physicochemical; conditions: aqueous solution / suitable solvents for testing
mice = conditions: cited from earlier work

| order of TLR7 conjugate potency (TLR7 [3]) | Compound | serum IL-6 induction (C57BL/6 mice) | serum TNFα induction (C57BL/6 mice; any point post injection) | IL-12 and IL-6 induction in TLR7 deficient BMDM (TLR7 [1]) | potency of cytokine induction compared to unconjugated TLR7 (SM), in words (TLR7 [2]) | solubility, in words (Solubility) | course of serum cytokine levels after injection, in words (C57BL/6 mice) | anorexic effects and hypothermia in mice (mice; mouse, in vivo) | minimum dose that induced the anorectic reaction (mice; mucosal administration) [nmoles per mice] |
| --- | --- | --- | --- | --- | --- | --- | --- | --- | --- |
| (4b)>(6)>(9)>/=SM>(8) and 4b>6>9>SM=8 | COCCOc1nc(N)c2nc(O)n(Cc3ccc(C(=O)NCCOCCOCCOCCOCCOCCOCCOCCOCCOCCOCCn4cc(CCC(=O)O)nn4)cc3)c2n1 [Compound 8, 3-(1-(1-(4-((6-amino-8-hydroxy-2-(2-methoxyethoxy)-9H-purin-9-yl)methyl)phenyl)-1-oxo-5,8,11,14,17,20,23,26,29,32-decaoxa-2-azatetratriacontan-34-yl)-1H-1,2,3-triazol-4-yl)propanoic acid] | only a low level of IL-6 | no significant induction of TNFα | little or no IL-12 and IL-6 | less potency compared to the unconjugated TLR7 (SM); also recorded: attenuated | solubility improves dramatically | – | – | – |
| – | COCCOc1nc(N)c2nc(O)n(Cc3ccccc3)c2n1 [SM, 9-benzyl-8-hydroxy-2-(2-methoxyethoxy) adenine, reference compound] | – | – | little or no IL-12 and IL-6 | – | insoluble in aqueous solution | declined rapidly after 2 hours | can induce anorexic effects and hypothermia | 50 |
